Source: patent publication US20210369699A1, “TREATMENT OF LUPUS ERYTHEMATOSUS USING S-HYDROXYCHLOROQUINE” (Genovate Biotechnology Co. Ltd., priority 2020, published 2021)
Like-named read-outs stand apart in the source and are kept apart here.

Legend:
[1] = target: T1, human ether-a-go-go-related gene (hERG) voltage-gated potassium channel (Homo sapiens, UniProt Q12809); test: In vitro cardiotoxicity assay: hERG patch-clamp in HEK-293 cells
Experimental: (§3) A conventional patch-clamp technique was used to determine inhibitory effects on hERG. Human embryonic kidney cells (HEK-293) stably transfected with human hERG cDNA were plated on collagen-coated 35-mm cell culture dishes at low density for 1-7 days. For single-cell patch-clamp recording, the intracellular solution contained 130 mM KCl, 10 mM NaCl, 1 mM MgCl2, 10 mM EGTA, 5 mM MgATP, and 10 mM HEPES (pH adjusted to 7.2 with KOH). The extracellular solution contained acellular Solution (mM): 137 mM NaCl, 4 mM KCl, 1.8 mM CaCl2, 1 mM MgCl2, 10 mM D(+)-Glucose, and 10 mM HEPES (pH adjusted to 7.4 with NaOH). All measurements were performed at room temperature.
(§4) After cell capture, a pulse protocol was implemented that involved stepping from a holding potential of −80 mV to +40 mV for 4 s to inactivate hERG channels. The membrane voltage was then stepped back to −50 mV for 4 s to evoke a tail current prior to returning to the holding potential. This sequence was repeated with an inter-pulse interval of 20 s. […] Evoked peak tail current amplitudes were continuously monitored throughout the experiment. Each compound was applied from low to high concentrations sequentially to the same cell for five minutes.
(§5) The percent inhibition of hERG channel was calculated by comparing the tail current amplitude before and after application of the compound, the current difference being normalized to control. The amplitude of the hERG peak tail current was calculated by measuring the tail current on stepping to −50 mV. The current was measured before and after each compound addition. […] Percent inhibition values were used to calculate the IC50 for each tested compound.

[2] = test system: IL-17 production in human peripheral blood mononuclear cells (PBMC); test: IL-17 production in PMA/ionomycin-stimulated PBMC (ELISA); assay type: cell-based; details: for IL-17 pg/mL (mean ± SD): n = 3; for inhibition at 25 µM / inhibition at 50 µM / inhibition at 100 µM / inhibition at 5 µM: PBMC; for inhibition at 25 µM / inhibition at 50 µM / inhibition at 100 µM / (%) inhibition / inhibition at 5 µM: IL-17 synthesis
Experimental: Hydroxychloroquine (HCQ) and its pure optical isomers S-hydroxychloroquine (S-HCQ; enantiomeric excess of 99.0%) and R-hydroxychloroquine (R-HCQ; enantiomeric excess of 98.3%) were tested in an in vitro pharmacodynamic assay to determine their efficacy at inhibiting interleukin 17 (IL-17) production in human peripheral blood mononuclear cells (PBMC) stimulated with phorbol myristate acetate (PMA) and ionomycin.
Cells were cultured at 37° C. with 5% CO2 in RPMI-1640 medium (Gibco, 11875-093) supplemented with 10% Fetal Bovine Serum (Gibco, 10437-028), 10 mM HEPES (Gibco, 15630-080), and 100 U/mL Penicillin/Streptomycin (Gibco, 15140-122).
PBMC were seeded at a density of 10^6 cells/ml in each well of a 96-well round bottom microplate (Corning, 7007) then stimulated with 25 ng/ml PMA and 1 μg/ml ionomycin in the absence and presence of 25 μM, 50 μM, or 100 μM HCQ, S-HCQ or R-HCQ each dissolved in ethanol. The final concentration of ethanol in the culture medium was 0.75%. PBMC treated with 5 μM methylprednisolone served as a positive control.
After incubation for 48 or 72 hours, the cell culture supernatants were collected and stored at −80° C. until analysis. The levels of IL-17 induced by PMA/ionomycin-stimulated PBMC were analyzed using human IL-17 Quantikine ELISA Kit (R & D system, D1700) according to product information.

[3] = Body weight of treated MRL/lpr mice
Experimental: Pharmacodynamics of HCQ, S-HCQ, and R-HCQ was examined in MRL/lpr mice, a model for human cutaneous lupus erythematosus. […] Eight-week old MRL/lpr mice, were purchased from Jackson Laboratory (ME, USA) and maintained on a 12 h light and dark cycle with constant temperature and humidity control. Animals were given water and food ad-libitum.
Groups of 14-15 mice were treated starting at the age of −15 weeks old with vehicle (10% EtOH in PBS), with low dose (20 mg/kg) or high dose (40 mg/kg) HCQ, S-HCQ, or R-HCQ. Mice in the vehicle and low dose groups were treated orally once daily for 16 weeks from age 15 to 31 weeks. Mice in the high dose groups were treated orally once daily for 14 weeks from age 15 to 29 weeks. Dosing volumes were kept consistent at 10 mL/kg.
MRL/lpr mice treated with vehicle or with 20 mg/kg HCQ, S-HCQ, or R-HCQ were weighed once per week from day 0 (initial day of dosing) to day 111. Animals in the 40 mg/kg groups were weighed daily from day 0 to day 90.

MRL/lpr mice [4] = test: Blood urea nitrogen and creatinine concentration in plasma of MRL/lpr mice; assay type: in vivo; details: end of study; for creatinine concentration in plasma: FIG. 4B
Experimental: (§1) See Furukawa et al., 1996, J. Invest. Dermatol. 107; 95-100; Furukawa et al., 2009, Autoimmun. Rev. 8:495-499; and Shimomatsu et al., 2016, Mod. Rheumatol. 26:744-748. […] Animals were given water and food ad-libitum.
(§2) Dosing volumes were kept consistent at 10 mL/kg.
Plasma was prepared from blood samples collected at the end of the study. They were analyzed for blood urea nitrogen (BUN) level and creatinine concentration using a FUJI DRI-CHEM 4000i instrument as directed by the manufacturer. Elevated BUN and creatinine levels indicate compromised kidney function.

[5] = target: T1, human ether-a-go-go-related gene (hERG) voltage-gated potassium channel
Experimental: as §3, §4, §5

MRL/lpr mice [6] = test: Skin lesions in treated MRL/lpr mice; assay type: in vivo; details: for mean score of skin lesions versus time (onset of skin inflammation and lesions): HCQ and R-HCQ, FIG. 3A
Experimental: as §1, §2
Inflammation and skin lesions in the MRL/lpr mice were scored twice per week from the regions of dorsal neck, forehead, snout, and ears using a previously described scoring scale. See Keil et al., 2016, Arthritis Res. Ther. 18:243. Briefly, animals with no skin lesions were scored as 0, those having minimal hair loss with redness and a few scattered lesions were scored as 1, and those with redness, scabbing, and hair loss with a small area of involvement were scored as 2.
The mean score of skin lesions in each group from Day 68 to Day 111 for vehicle and low dose groups and from Day 68 to Day 90 for high dose groups after first dosing were plotted and are shown in FIG. 3A.
The data was reanalyzed by comparing the average skin lesion scores for each treatment over the entire test period. The skin lesion scores from day 68 to day 111 after initial dosing were averaged for the vehicle and the low dose groups and compared, as shown in FIG. 3B. The skin lesion scores from day 68 to day 90 after initial dosing were averaged for the vehicle and the high dose groups and compared, as shown in FIG. 3C.

MRL/lpr mice [7] = test: Survival of treated MRL/lpr mice; assay type: in vivo; details: observed 70-80 days
Experimental: as §1, §2
The number of live and dead mice was recorded each day beginning from the first dosing day at age 15 weeks.

[8] = 25 μM, 48 h, PMA/ionomycin-stimulated PBMC
[9] = 25 μM, 72 h, PMA/ionomycin-stimulated PBMC
[10] = 50 μM, 48 h, PMA/ionomycin-stimulated PBMC
[11] = 50 μM, 72 h, PMA/ionomycin-stimulated PBMC
[12] = 100 μM, 48 h, PMA/ionomycin-stimulated PBMC
[13] = 100 μM, 72 h, PMA/ionomycin-stimulated PBMC

T1 sequence (Q12809 whole entry): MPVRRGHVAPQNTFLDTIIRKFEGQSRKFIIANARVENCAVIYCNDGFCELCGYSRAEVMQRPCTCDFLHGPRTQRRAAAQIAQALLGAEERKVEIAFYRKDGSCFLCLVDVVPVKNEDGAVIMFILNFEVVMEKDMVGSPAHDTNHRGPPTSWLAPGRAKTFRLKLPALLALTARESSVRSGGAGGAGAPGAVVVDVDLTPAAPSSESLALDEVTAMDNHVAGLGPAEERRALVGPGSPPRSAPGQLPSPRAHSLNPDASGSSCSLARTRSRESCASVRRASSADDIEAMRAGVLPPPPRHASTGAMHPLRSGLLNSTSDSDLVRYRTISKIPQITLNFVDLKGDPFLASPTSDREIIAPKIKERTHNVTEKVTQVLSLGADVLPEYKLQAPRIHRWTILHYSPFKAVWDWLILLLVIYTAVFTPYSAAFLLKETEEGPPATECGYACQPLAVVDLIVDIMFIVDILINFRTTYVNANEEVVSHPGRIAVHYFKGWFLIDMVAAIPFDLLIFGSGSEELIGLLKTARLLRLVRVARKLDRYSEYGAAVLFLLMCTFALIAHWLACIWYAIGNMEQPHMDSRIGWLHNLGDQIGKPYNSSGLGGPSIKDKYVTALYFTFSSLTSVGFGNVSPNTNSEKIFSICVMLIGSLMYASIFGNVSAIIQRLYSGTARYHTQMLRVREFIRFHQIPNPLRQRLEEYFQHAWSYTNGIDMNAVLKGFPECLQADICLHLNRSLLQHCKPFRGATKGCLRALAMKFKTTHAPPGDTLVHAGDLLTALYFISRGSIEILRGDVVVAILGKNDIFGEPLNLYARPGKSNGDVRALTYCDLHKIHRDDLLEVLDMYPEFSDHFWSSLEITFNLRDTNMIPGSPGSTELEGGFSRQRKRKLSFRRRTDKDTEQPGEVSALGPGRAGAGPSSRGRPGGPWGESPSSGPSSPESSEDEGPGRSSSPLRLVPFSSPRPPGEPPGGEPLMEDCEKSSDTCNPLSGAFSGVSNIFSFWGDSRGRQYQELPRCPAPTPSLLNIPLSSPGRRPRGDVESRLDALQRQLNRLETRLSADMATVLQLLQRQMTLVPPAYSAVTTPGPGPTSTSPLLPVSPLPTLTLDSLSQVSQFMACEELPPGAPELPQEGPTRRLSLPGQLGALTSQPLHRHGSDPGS

SMILES	IL-17 pg/mL (mean ± SD) [2, 8] [pg/mL]	IL-17 pg/mL (mean ± SD) [2, 9] [pg/mL]	IL-17 pg/mL (mean ± SD) [2, 10] [pg/mL]	IL-17 pg/mL (mean ± SD) [2, 11] [pg/mL]	IL-17 pg/mL (mean ± SD) [2, 12] [pg/mL]	IL-17 pg/mL (mean ± SD) [2, 13] [pg/mL]	creatinine concentration in plasma (MRL/lpr mice [4]; 20 mg/kg orally once daily)	IC50 [5] [µM]	(%) inhibition ([2]; 25 μM, 48 h) [%]	(%) inhibition ([2]; 25 μM, 72 h) [%]	(%) inhibition ([2]; 50 μM, 48 h) [%]	(%) inhibition ([2]; 50 μM, 72 h) [%]	(%) inhibition ([2]; 100 μM, 48 h) [%]	(%) inhibition ([2]; 100 μM, 72 h) [%]	creatinine concentration in plasma (MRL/lpr mice [4]; 40 mg/kg orally once daily)	other results
CCN(CCO)CCCC(C)Nc1ccnc2cc(Cl)ccc12 (racemic) [HCQ, Hydroxychloroquine]	480.4 ± 13.1	502.4 ± 20.7	344.8 ± 12.2	341.1 ± 47.4	214.5 ± 15.3	203.0 ± 10.8	lower	–	–	–	–	–	–	–	–	IC50 [1]: 4.84 µM; inhibition at 25 µM ([2]; Homo sapiens, 25 μM, 48 h): 3%; inhibition at 25 µM ([2]; Homo sapiens, 25 μM, 72 h): 23%; inhibition at 50 µM ([2]; Homo sapiens, 50 μM, 48 h): 30%; inhibition at 50 µM ([2]; Homo sapiens, 50 μM, 72 h): 48%; inhibition at 100 µM ([2]; Homo sapiens, 100 μM, 48 h): 57%; inhibition at 100 µM ([2]; Homo sapiens, 100 μM, 72 h): 69%; IC50 ([2]; Homo sapiens, PMA/ionomycin-stimulated PBMC, 48 h or 72 h, read-out: absolute IC50 of IL-17 inhibition): 50 to 100 µM; mean body weight vs vehicle ([3]; 20 mg/kg orally once daily, day 0 to day 111, FIG. 1A): No obvious difference in mean body weight; mean body weight vs vehicle ([3]; 40 mg/kg orally once daily, day 0 to day 90, FIG. 1B): No obvious difference in mean body weight
CCN(CCO)CCCC(C)Nc1ccnc2cc(Cl)ccc12 (stereo not drawn) [R-HCQ, R-hydroxychloroquine]	471.6 ± 32.9	564.0 ± 72.9	289.4 ± 34.7	326.8 ± 33.6	154.0 ± 18.1	179.2 ± 31.8	lower	4.2	5	13	42	50	69	72	lower	–
CCN(CCO)CCC[C@H](C)Nc1ccnc2cc(Cl)ccc12 [S-HCQ, S-hydroxychloroquine]	432.6 ± 28.9	486.5 ± 8.9	292.0 ± 21.6	354.6 ± 52.5	215.0 ± 24.6	248.9 ± 38.9	–	11	13	25	41	45	57	62	most significant decrease in creatinine concentration	average skin lesion score over the test period vs vehicle (MRL/lpr mice [6]; 20 mg/kg (low dose), day 68 to day 111, t-test p<0.005, FIG. 3B): significantly reduced skin lesion scores; mean score of skin lesions versus time (onset of skin inflammation and lesions) (MRL/lpr mice [6]; 20 mg/kg orally once daily, Day 68 to Day 111, compared to vehicle): superior in reducing the onset of skin inflammation and lesions; average skin lesion score over the test period vs vehicle (MRL/lpr mice [6]; 40 mg/kg (high dose), day 68 to day 90, t-test p<0.005, FIG. 3C): significantly reduced skin lesion scores; mean score of skin lesions versus time (onset of skin inflammation and lesions) (MRL/lpr mice [6]; 40 mg/kg orally once daily, Day 68 to Day 90, compared to vehicle): superior in reducing the onset of skin inflammation and lesions; blood urea nitrogen (BUN) level in plasma (MRL/lpr mice [4]; 40 mg/kg orally once daily, compared to any other treatments, FIG. 4A): significantly lower; fractional survival compared to vehicle, HCQ and R-HCQ (MRL/lpr mice [7]; 20 mg/kg orally once daily, FIG. 2A): higher fractional survival; fractional survival compared to vehicle, HCQ and R-HCQ (MRL/lpr mice [7]; 40 mg/kg orally once daily, FIG. 2B): higher fractional survival
C[C@H]1C[C@@H]2[C@H]([C@@H](O)C[C@@]3(C)[C@H]2CC[C@]3(O)C(=O)CO)[C@@]2(C)C=CC(=O)C=C12 [methylprednisolone]	–	–	–	–	–	–	–	–	–	–	–	–	–	–	–	IL-17 pg/mL (mean ± SD) ([2]; 5 μM, 48 h, PMA/ionomycin-stimulated PBMC): 266.7 ± 15.3 pg/mL; IL-17 pg/mL (mean ± SD) ([2]; 5 μM, 72 h, PMA/ionomycin-stimulated PBMC): 282.0 ± 37.6 pg/mL; inhibition at 5 µM ([2]; Homo sapiens, 5 μM, 48 h): 46%; inhibition at 5 µM ([2]; Homo sapiens, 5 μM, 72 h): 57%
